How the values were obtained:
[1] = weighting of plasma concentration; cited from earlier work
[2] = Plasma concentrations of TAM, TOR and their metabolites by LC–MS/MS (screening study)
[3] = Hot flush grade (CTCAE v3.0) in the screening study; type: in vivo, breast cancer patients
From the text: We obtained data on compliance and the grade of hot flush as defined by the Common Terminology Criteria for Adverse Events v3.0.

[4] = patients on TAM 20 mg a day, N=182
[5] = 14 patients of the dose-escalation study

Row | Plasma concentration, max [2, 4] | Plasma concentration, mean [2, 4] | Plasma concentration, median [2, 4] | Plasma concentration, min [2, 4] | Plasma concentration, max ([2]; patients on TOR 40 mg, N=61) | Plasma concentration, mean ([2]; patients on TOR 40 mg, N=61) | Plasma concentration, median ([2]; patients on TOR 40 mg, N=61) | Plasma concentration, min ([2]; patients on TOR 40 mg, N=61) | Plasma concentration, max ([2]; patients on TOR 120 mg, N=27) | Plasma concentration, mean ([2]; patients on TOR 120 mg, N=27) | Plasma concentration, median ([2]; patients on TOR 120 mg, N=27) | Plasma concentration, min ([2]; patients on TOR 120 mg, N=27) | SMILES | In vitro activity factor in the total activity of TAM (TAM = 1.0) [1] | In vitro activity factor in the total activity of TOR (TOR = 1.0) [1] | further results
1 | 1090.0 ng/mL | 283.2 ng/mL | 271.0 ng/mL | 59.2 ng/mL | – | – | – | – | – | – | – | – | CC/C(=C(\c1ccccc1)c1ccc(OCCNC)cc1)c1ccccc1 [NDM-TAM] | 0.655 | – | –
2 | – | – | – | – | 68.8 ng/mL | 15.4 ng/mL | 13.4 ng/mL | 4.5 ng/mL | 52.9 ng/mL | 32.6 ng/mL | 34.3 ng/mL | 11.5 ng/mL | CNCCOc1ccc(/C(=C(/CCCl)c2ccccc2)c2ccc(O)cc2)cc1 [4OH-NDM-TOR] | – | 91.9 | –
3 | 9.5 ng/mL | 3.6 ng/mL | 3.3 ng/mL | 0.2 ng/mL | – | – | – | – | – | – | – | – | CC/C(=C(\c1ccc(O)cc1)c1ccc(OCCN(C)C)cc1)c1ccccc1 [4OH-TAM] | 116 | – | –
4 | – | – | – | – | 2820.0 ng/mL | 1373.7 ng/mL | 1350.0 ng/mL | 601.0 ng/mL | 5430.0 ng/mL | 3594.4 ng/mL | 3500.0 ng/mL | 1380.0 ng/mL | CNCCOc1ccc(/C(=C(/CCCl)c2ccccc2)c2ccccc2)cc1 [NDM-TOR] | – | 0.764 | –
5 | – | – | – | – | 16.4 ng/mL | 8.1 ng/mL | 6.9 ng/mL | 2.4 ng/mL | 31.2 ng/mL | 16.0 ng/mL | 14.6 ng/mL | 5.5 ng/mL | CN(C)CCOc1ccc(/C(=C(/CCCl)c2ccccc2)c2ccc(O)cc2)cc1 [4OH-TOR] | – | 98.0 | –
6 | 552.0 ng/mL | 174.7 ng/mL | 163.0 ng/mL | 38.5 ng/mL | – | – | – | – | – | – | – | – | CC/C(=C(\c1ccccc1)c1ccc(OCCN(C)C)cc1)c1ccccc1 [TAM, tamoxifen] | 1.0 | – | Hot flush grade 0 on TAM 20 mg, % of patients [3, 5]: 57.1%; Hot flush grade 0 on TAM 20 mg, patients [3, 5]: 8; Hot flush grade 1 on TAM 20 mg, % of patients [3, 5]: 28.6%; Hot flush grade 1 on TAM 20 mg, patients [3, 5]: 4; Hot flush grade 2 on TAM 20 mg, % of patients [3, 5]: 14.3%; Hot flush grade 2 on TAM 20 mg, patients [3, 5]: 2; Hot flush grade 0, % of patients ([3]; TAM 20 mg, screening study): 56.8%; Hot flush grade 1, % of patients ([3]; TAM 20 mg, screening study): 31.4%; Hot flush grade 1, patients ([3]; TAM 20 mg, screening study): 58; Hot flush grade 2, % of patients ([3]; TAM 20 mg, screening study): 11.4%; Hot flush grade 2, patients ([3]; TAM 20 mg, screening study): 21; Hot flush grade 3, % of patients ([3]; TAM 20 mg, screening study): 0.5%; Hot flush grade 3, patients ([3]; TAM 20 mg, screening study): 1
